# Source: patent US20260138958A1, “SUBSTITUTED N-PHENYLURACILS AND SALTS THEREOF, AND USE THEREOF AS HERBICIDAL ACTIVE SUBSTANCES” (Bayer Aktiengesellschaft, priority 2022, published 2026)
# What was measured:
# Type in all cases: in vivo
# [1] = system: Triticum aestivum (TRZAS); assay: Post-emergence crop plant compatibility, greenhouse pot test; conditions: Triticum aestivum, in vivo
# Outline: (§1)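 Crops grown in sandy loam in the greenhouse were sprayed post-emergence at the one-leaf stage, 2–3 weeks after sowing, with WP or EC formulations plus 0.5% additive at 600 l/ha water. Damage was rated visually after about 3 weeks against untreated controls (0% = like control, 100% = dead).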
# Zea mays (ZEAMX) = assay: as above; conditions: Zea mays, in vivo
# Outline: as §1
# harmful plants = assay: Post-emergence herbicidal action, summary statements over several weeds; conditions: 20 g or less per hectare, ALOMY, ECHCG, AVEFA, VERPE
# Description: (§2) Seeds of monocotyledonous and dicotyledonous weeds and crop plants were placed in sandy loam in plastic or wood-fibre pots, covered with soil and cultivated in a greenhouse under controlled growth conditions. 2 to 3 weeks after sowing, the test plants were treated at the one-leaf stage. The compounds of the invention, formulated in the form of wettable powders (WP) or as emulsion concentrates (EC), were then sprayed onto the green parts of the plants as aqueous suspension or emulsion with addition of 0.5% additive at a water application rate of 600 l/ha (converted). After the test plants had been kept in the greenhouse under optimum growth conditions for about 3 weeks, the activity of the preparations was rated visually in comparison to untreated controls. For example, 100% activity=the plants have died, 0% activity=like control plants.
# [2] = system: Polygonum convolvulus (POLCO); assay: Post-emergence herbicidal action, greenhouse pot test; conditions: Fallopia convolvulus, 504 h
# Outline: (§3)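 Weeds grown in sandy loam in the greenhouse and sprayed post-emergence at the one-leaf stage, 2–3 weeks after sowing. Compound applied as WP or EC in water with 0.5% additive at 600 l/ha. Damage rated visually about 3 weeks later against untreated controls (0% = like control, 100% = dead).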
# [3] = system: Abutilon theophrasti (ABUTH); assay: as above
# Outline: as §3
# [4] = system: Echinochloa crus-galli (ECHCG); assay: as above
# Outline: as §3
# Veronica persica (VERPE) = assay: as above
# Outline: as §3
# Bassia scoparia (KCHSC) = assay: as above
# Outline: as §3
# [5] = system: Tripleurospermum inodorum (MATIN); assay: as above; conditions: Tripleurospermum inodorum, 504 h, 20 g/ha, read-out: Post-emergence effect at 20 g/ha against MATIN in %
# Outline: as §3
# [6] = system: Pharbitis purpurea (PHBPU); assay: as above
# Outline: as §3
# [7] = system: Digitaria sanguinalis (DIGSA); assay: as above
# Outline: as §3
# [8] = system: Amaranthus retroflexus (AMARE); assay: as above; conditions: Amaranthus retroflexus, 504 h
# Outline: as §3
# [9] = system: Alopecurus myosuroides (ALOMY); assay: as above
# Outline: as §3
# Viola tricolor (VIOTR) = assay: as above
# Outline: as §3
# Setaria viridis (SETVI) = assay: as above
# Outline: as §3
# crop plants = assay: Post-emergence crop plant compatibility, summary statements over several crops; conditions: 5 g or less per hectare, ORYSA, ZEAMX, TRZAS
# Description: as §2
# The observed effects on selected crop plants are reported here in comparison to the untreated controls (values in %).
compound,measurement,setting,value
Cn1c(C(F)(F)F)cc(=O)n(-c2cc(Oc3ccccc3OCC(=O)OCC3CCCCCC3)c(Cl)cc2F)c1=O [I.7-16],Post-emergence effect at 1.25 g/ha against TRZAS in %,[1],10%
same,Post-emergence effect at 20 g/ha against TRZAS in %,[1],20%
same,Post-emergence effect at 1.25 g/ha against ZEAMX in %,Zea mays (ZEAMX),20%
same,"herbicidal efficacy by comparison with a-27, a-29 or a generically encompassed structure (WO2002/098227)",harmful plants,distinctly improved herbicidal efficacy
same,pest or weed control at 5 g/ha,"[2]; 5 g/ha, read-out: Post-emergence effect at 5 g/ha against POLCO in %",100%
same,pest or weed control at 20 g/ha,"[2]; 20 g/ha, read-out: Post-emergence effect at 20 g/ha against POLCO in %",100%
same,Post-emergence effect at 1.25 g/ha against ABUTH in %,[3]; 1.25 g/ha,80%
same,pest or weed control at 5 g/ha,"[3]; Abutilon theophrasti, 504 h, 5 g/ha, read-out: Post-emergence effect at 5 g/ha against ABUTH in %",100%
same,pest or weed control at 20 g/ha,"[3]; Abutilon theophrasti, 504 h, 20 g/ha, read-out: Post-emergence effect at 20 g/ha against ABUTH in %",100%
same,Post-emergence effect at 1.25 g/ha against ECHCG in %,[4]; 1.25 g/ha,100%
same,Post-emergence effect at 5 g/ha against ECHCG in %,[4]; 5 g/ha,100%
same,pest or weed control at 20 g/ha,"[4]; Echinochloa crus-galli, 504 h, 20 g/ha, read-out: Post-emergence effect at 20 g/ha against ECHCG in %",100%
same,ECHCG (efficacy in %),"[4]; Table B5 comparison, application rate 1.25 g/ha",100%
same,Post-emergence effect at 1.25 g/ha against VERPE in %,Veronica persica (VERPE); 1.25 g/ha,80%
same,pest or weed control at 5 g/ha,"Veronica persica (VERPE); Veronica persica, 504 h, 5 g/ha, read-out: Post-emergence effect at 5 g/ha against VERPE in %",100%
same,pest or weed control at 20 g/ha,"Veronica persica (VERPE); Veronica persica, 504 h, 20 g/ha, read-out: Post-emergence effect at 20 g/ha against VERPE in %",100%
same,Post-emergence effect at 1.25 g/ha against KCHSC in %,Bassia scoparia (KCHSC); 1.25 g/ha,100%
same,Post-emergence effect at 5 g/ha against KCHSC in %,Bassia scoparia (KCHSC); 5 g/ha,100%
same,Post-emergence effect at 20 g/ha against KCHSC in %,Bassia scoparia (KCHSC); 20 g/ha,100%
same,pest or weed control at 20 g/ha,[5],90%
same,Post-emergence effect at 1.25 g/ha against PHBPU in %,[6]; 1.25 g/ha,80%
same,pest or weed control at 5 g/ha,"[6]; Ipomoea purpurea, 504 h, 5 g/ha, read-out: Post-emergence effect at 5 g/ha against PHBPU in %",100%
same,pest or weed control at 20 g/ha,"[6]; Ipomoea purpurea, 504 h, 20 g/ha, read-out: Post-emergence effect at 20 g/ha against PHBPU in %",100%
same,Post-emergence effect at 1.25 g/ha against DIGSA in %,[7]; 1.25 g/ha,90%
same,Post-emergence effect at 5 g/ha against DIGSA in %,[7]; 5 g/ha,100%
same,Post-emergence effect at 20 g/ha against DIGSA in %,[7]; 20 g/ha,100%
same,pest or weed control at 1.25 g/ha,"[8]; 1.25 g/ha, read-out: Post-emergence effect at 1.25 g/ha against AMARE in %",100%
same,pest or weed control at 5 g/ha,"[8]; 5 g/ha, read-out: Post-emergence effect at 5 g/ha against AMARE in %",100%
same,pest or weed control at 20 g/ha,"[8]; 20 g/ha, read-out: Post-emergence effect at 20 g/ha against AMARE in %",100%
same,Post-emergence effect at 5 g/ha against ALOMY in %,[9]; 5 g/ha,90%
same,pest or weed control at 20 g/ha,"[9]; Alopecurus myosuroides, 504 h, 20 g/ha, read-out: Post-emergence effect at 20 g/ha against ALOMY in %",100%
same,Post-emergence effect at 1.25 g/ha against VIOTR in %,Viola tricolor (VIOTR); 1.25 g/ha,100%
same,Post-emergence effect at 5 g/ha against VIOTR in %,Viola tricolor (VIOTR); 5 g/ha,100%
same,pest or weed control at 20 g/ha,"Viola tricolor (VIOTR); Viola tricolor, 504 h, 20 g/ha, read-out: Post-emergence effect at 20 g/ha against VIOTR in %",100%
same,Post-emergence effect at 1.25 g/ha against SETVI in %,Setaria viridis (SETVI); 1.25 g/ha,100%
same,pest or weed control at 5 g/ha,"Setaria viridis (SETVI); Setaria viridis, 504 h, 5 g/ha, read-out: Post-emergence effect at 5 g/ha against SETVI in %",100%
same,pest or weed control at 20 g/ha,"Setaria viridis (SETVI); Setaria viridis, 504 h, 20 g/ha, read-out: Post-emergence effect at 20 g/ha against SETVI in %",100%
same,"compatibility with crop plants by comparison with a-27, a-29 or a generically encompassed structure (WO2002/098227)",crop plants,distinctly improved compatibility
